Experimental data: PubChem BioAssay AID330 (DTP/NCI, 2004)
Several values for one entry are separate records, joined by “and”; a condition that tells them apart may be missing. Equal entries are not always repeated. Toxic doses and inconclusive results are not listed.

Test system: P388 leukemia ip, CD2F1 mice, survival T/C
Test: NCI In Vivo Anticancer Drug Screen. Data for tumor model P388 Leukemia (intraperitoneal) in CD2F1 (CDF1) mice
Details: endpoint: median survival time, higher = longer survival
How it was run: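 Mice carrying the transplanted tumor received test compound or vehicle. Survival was recorded in each group, and the value is the treated-group measurement divided by that of the vehicle-treated control group.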

With COc1cc2cc(c1Cl)N(C)C(=O)C[C@H](OC(=O)[C@H](C)N(C)C(C)=O)[C@]1(C)O[C@H]1[C@H](C)[C@@H]1C[C@@](O)(NC(=O)O1)[C@H](OC)C=C/C=C(\C)C2 the T/C (dose: 16.0 micrograms/kg/injection, schedule: Q01DX001 (sc), vehicle: other) was 100 % of control, the T/C (dose: 16.0 micrograms/kg/injection, schedule: Q01DX005 (ip), vehicle: saline + alcohol) was 155 % of control and 157 % of control and 160 % of control and the T/C (dose: 16.0 micrograms/kg/injection, schedule: Q01DX009 (ip), vehicle: water) was 159 % of control. For the same compound, the T/C (dose: 16.0 micrograms/kg/injection, schedule: Q01DX009 (oral), vehicle: other) was 100 % of control, the T/C (dose: 16.0 micrograms/kg/injection, schedule: Q01DX009 (sc), vehicle: other) was 100 % of control and the T/C (dose: 16.0 micrograms/kg/injection, schedule: Q03HX008 (ip), vehicle: saline + alcohol) was 163 % of control. The T/C (dose: 16.0 micrograms/kg/injection, schedule: Q04DX003 (ip), vehicle: other) was 154 % of control, the T/C (dose: 16.0 micrograms/kg/injection, schedule: Q04DX003 (ip), vehicle: water) was 151 % of control and the T/C (dose: 25.0 micrograms/kg/injection, schedule: Q01DX009 (ip), vehicle: saline + alcohol) was 163 % of control. The T/C (dose: 32.0 micrograms/kg/injection, schedule: Q01DX001 (oral), vehicle: other) was 100 % of control, the T/C (dose: 32.0 micrograms/kg/injection, schedule: Q01DX001 (sc), vehicle: other) was 100 % of control and the T/C (dose: 32.0 micrograms/kg/injection, schedule: Q01DX005 (ip), vehicle: saline + alcohol) was 163 % of control and 172 % of control. The T/C (dose: 32.0 micrograms/kg/injection, schedule: Q01DX009 (oral), vehicle: other) was 109 % of control, the T/C (dose: 32.0 micrograms/kg/injection, schedule: Q01DX009 (sc), vehicle: other) was 104 % of control and the T/C (dose: 32.0 micrograms/kg/injection, schedule: Q03HX016 (ip), vehicle: saline + alcohol) was 163 % of control. For the same compound, the T/C (dose: 32.0 micrograms/kg/injection, schedule: Q03HX024 (ip), vehicle: saline + alcohol) was 122 % of control, the T/C (dose: 32.0 micrograms/kg/injection, schedule: Q04DX003 (ip), vehicle: other) was 172 % of control and the T/C (dose: 50.0 micrograms/kg/injection, schedule: Q01DX005 (ip), vehicle: saline) was 173 % of control. The T/C (dose: 50.0 micrograms/kg/injection, schedule: Q01DX009 (ip), vehicle: saline + alcohol) was 159 % of control, the T/C (dose: 64.0 micrograms/kg/injection, schedule: Q01DX001 (oral), vehicle: other) was 100 % of control and the T/C (dose: 64.0 micrograms/kg/injection, schedule: Q01DX001 (sc), vehicle: other) was 100 % of control. The T/C (dose: 64.0 micrograms/kg/injection, schedule: Q01DX005 (ip), vehicle: saline + alcohol) was 173 % of control and 175 % of control, the T/C (dose: 64.0 micrograms/kg/injection, schedule: Q01DX009 (oral), vehicle: other) was 104 % of control and the T/C (dose: 64.0 micrograms/kg/injection, schedule: Q01DX009 (sc), vehicle: other) was 109 % of control. For the same compound, the T/C (dose: 64.0 micrograms/kg/injection, schedule: Q03HX008 (ip), vehicle: saline + alcohol) was 159 % of control, the T/C (dose: 64.0 micrograms/kg/injection, schedule: Q04DX003 (ip), vehicle: water) was 161 % of control and the T/C (dose: 64.0 micrograms/kg/injection, schedule: Q08DX002 (ip), vehicle: other) was 150 % of control. For the same compound, the T/C (dose: 86.4 micrograms/kg/injection, schedule: Q04DX002 (ip), vehicle: saline + alcohol) was 160 % of control, the T/C (dose: 128.0 micrograms/kg/injection, schedule: Q01DX001 (ip), vehicle: other) was 154 % of control and the T/C (dose: 128.0 micrograms/kg/injection, schedule: Q01DX001 (oral), vehicle: other) was 104 % of control. For the same compound, the T/C (dose: 128.0 micrograms/kg/injection, schedule: Q01DX001 (sc), vehicle: other) was 109 % of control, the T/C (dose: 128.0 micrograms/kg/injection, schedule: Q01DX009 (oral), vehicle: other) was 100 % of control and the T/C (dose: 128.0 micrograms/kg/injection, schedule: Q01DX009 (sc), vehicle: saline + alcohol) was 154 % of control. The T/C (dose: 128.0 micrograms/kg/injection, schedule: Q04DX003 (ip), vehicle: saline + alcohol) was 163 % of control, the T/C (dose: 128.0 micrograms/kg/injection, schedule: Q04DX003 (ip), vehicle: water) was 150 % of control and the T/C (dose: 128.0 micrograms/kg/injection, schedule: Q08DX002 (ip), vehicle: other) was 163 % of control. For the same compound, the T/C (dose: 128.0 micrograms/kg/injection, schedule: Q08DX002 (ip), vehicle: saline + alcohol) was 163 % of control, the T/C (dose: 128.0 micrograms/kg/injection, schedule: Q08DX002 (ip), vehicle: saline) was 154 % of control and the T/C (dose: 144.0 micrograms/kg/injection, schedule: Q04DX002 (ip), vehicle: saline + alcohol) was 169 % of control. For the same compound, the T/C (dose: 256.0 micrograms/kg/injection, schedule: Q01DX001 (ip), vehicle: other) was 150 % of control, the T/C (dose: 256.0 micrograms/kg/injection, schedule: Q01DX001 (ip), vehicle: saline + alcohol) was 150 % of control and the T/C (dose: 256.0 micrograms/kg/injection, schedule: Q01DX001 (oral), vehicle: other) was 104 % of control. For the same compound, the T/C (dose: 256.0 micrograms/kg/injection, schedule: Q01DX009 (sc), vehicle: saline + alcohol) was 172 % of control, the T/C (dose: 256.0 micrograms/kg/injection, schedule: Q08DX002 (ip), vehicle: saline) was 172 % of control and the T/C (dose: 512.0 micrograms/kg/injection, schedule: Q01DX001 (ip), vehicle: saline + alcohol) was 154 % of control. For the same compound, the T/C (dose: 512.0 micrograms/kg/injection, schedule: Q01DX001 (oral), vehicle: other) was 100 % of control and the T/C (dose: 1024.0 micrograms/kg/injection, schedule: Q08DX002 (ip), vehicle: saline) was 109 % of control.
